From PubChem BioAssay AID330 (DTP/NCI, 2004)
Several values for one entry are separate records, joined by “and”; a condition that tells them apart may be missing. Equal entries are not always repeated. Inconclusive results and toxic doses are left out. How the source made its calls: active means survival T/C of 150% or more; inactive means T/C below 125% in these data.

Tested on: P388 leukemia ip, CD2F1 mice, survival T/C
Test: NCI In Vivo Anticancer Drug Screen. Data for tumor model P388 Leukemia (intraperitoneal) in CD2F1 (CDF1) mice
Conditions: endpoint: median survival time, higher = longer survival
In short: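 Mice carrying the transplanted tumor received test compound or vehicle. Survival was recorded in each group, and the value is the treated-group measurement divided by that of the vehicle-treated control group.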

[1] = dose: 50.0 mg/kg/injection, schedule: Q01DX005 (ip), vehicle: saline with Tween-80
[2] = dose: 100.0 mg/kg/injection, schedule: Q01DX005 (ip), vehicle: saline with Tween-80
[3] = dose: 200.0 mg/kg/injection, schedule: Q01DX005 (ip), vehicle: saline with Tween-80
[4] = dose: 50.0 mg/kg/injection, schedule: Q01DX009 (ip), vehicle: saline
[5] = dose: 50.0 mg/kg/injection, schedule: Q01DX009 (ip), vehicle: saline with Tween-80
[6] = dose: 100.0 mg/kg/injection, schedule: Q01DX009 (ip), vehicle: saline with Tween-80
[7] = dose: 60.0 mg/kg/injection, schedule: Q01DX005 (ip), vehicle: saline with Tween-80
[8] = dose: 120.0 mg/kg/injection, schedule: Q01DX005 (ip), vehicle: saline with Tween-80
[9] = dose: 240.0 mg/kg/injection, schedule: Q01DX005 (ip), vehicle: saline with Tween-80
[10] = dose: 100.0 mg/kg/injection, schedule: Q01DX001 (ip), vehicle: saline with Tween-80
[11] = dose: 200.0 mg/kg/injection, schedule: Q01DX001 (ip), vehicle: saline with Tween-80
[12] = dose: 400.0 mg/kg/injection, schedule: Q01DX001 (ip), vehicle: saline with Tween-80
[13] = dose: 100.0 mg/kg/injection, schedule: Q04DX002 (ip), vehicle: saline with Tween-80
[14] = dose: 50.0 mg/kg/injection, schedule: Q01DX005 (ip), vehicle: Klucel (hydroxypropylcellulose) (HPC)
[15] = dose: 100.0 mg/kg/injection, schedule: Q01DX005 (ip), vehicle: Klucel (hydroxypropylcellulose) (HPC)
[16] = dose: 200.0 mg/kg/injection, schedule: Q01DX005 (ip), vehicle: Klucel (hydroxypropylcellulose) (HPC)

Measured: T/C

CCOC(=O)[C]1([Pb]([CH3])([CH3])[CH3])N=NC(C(=O)OC)=C1C(=O)OC (configuration not stated)
inactive: dose: 0.78 mg/kg/injection, schedule: Q01DX009 (ip), vehicle: saline 89 % of control | dose: 1.56 mg/kg/injection, schedule: Q01DX009 (ip), vehicle: saline 90 % of control | dose: 3.12 mg/kg/injection, schedule: Q01DX009 (ip), vehicle: saline 90 % of control

CN1C(=O)C(O)(C2=C3OCOC3=CC(=O)C2=O)c2ccccc21 (configuration not stated)
inactive: dose: 6.25 mg/kg/injection, schedule: Q01DX005 (ip), vehicle: saline 105 % of control | dose: 12.5 mg/kg/injection, schedule: Q01DX005 (ip), vehicle: saline 103 % of control | dose: 25.0 mg/kg/injection, schedule: Q01DX005 (ip), vehicle: saline 102 % of control

Fc1cccc(C(Nc2nncs2)Nc2nncs2)c1F
inactive: [1] 99 % of control | [2] 93 % of control | [3] 93 % of control

Nc1ccc2[se]ccc2c1
inactive: dose: 12.5 mg/kg/injection, schedule: Q01DX009 (ip), vehicle: suspension in saline 105 % of control | dose: 25.0 mg/kg/injection, schedule: Q01DX009 (ip), vehicle: suspension in saline 100 % of control | [4] 91 % of control | dose: 50.0 mg/kg/injection, schedule: Q01DX009 (ip), vehicle: suspension in saline 100 % of control | dose: 200.0 mg/kg/injection, schedule: Q01DX009 (ip), vehicle: saline 100 % of control

CCOC(=O)C(C#N)(CCC(=NC(C)(C)C)Nc1ccccc1C#N)CCC(=NC(C)(C)C)Nc1ccccc1C#N (configuration not stated)
inactive: [5] 100 % of control | [6] 94 % of control

COc1ccc(CCN2CC(=O)N3CSCC3C2=O)cc1OC (configuration not stated)
inactive: [7] 100 % of control | [8] 95 % of control | [9] 95 % of control

O=C1[C@@H]2CCC[C@@H]2[C@H]2CCC[C@@H]12
inactive: [10] 95 % of control | [11] 102 % of control | [12] 89 % of control

CCS/C(C#N)=C(/Br)c1ccc(OC)cc1
inactive: [5] 98 % of control | [6] 100 % of control

COC(=O)[C@H]1[C@H]2C[C@@H]3c4[nH]c5cc(OC)ccc5c4CCN3C[C@H]2C[C@@H](OC(=O)c2cc(OC)c(OC)c(OC)c2)[C@@H]1OC
inactive: dose: 0.25 mg/kg/injection, schedule: Q01DX009 (ip), vehicle: Klucel (hydroxypropylcellulose) (HPC) 100 % of control | dose: 0.5 mg/kg/injection, schedule: Q01DX009 (ip), vehicle: Klucel (hydroxypropylcellulose) (HPC) 97 % of control | dose: 1.0 mg/kg/injection, schedule: Q01DX009 (ip), vehicle: Klucel (hydroxypropylcellulose) (HPC) 97 % of control | dose: 2.0 mg/kg/injection, schedule: Q01DX009 (ip), vehicle: Klucel (hydroxypropylcellulose) (HPC) 95 % of control | dose: 4.0 mg/kg/injection, schedule: Q01DX009 (ip), vehicle: Klucel (hydroxypropylcellulose) (HPC) 96 % of control

CN1C(=O)Cc2ccccc2C1=O
inactive: dose: 12.5 mg/kg/injection, schedule: Q01DX009 (ip), vehicle: saline 103 % of control | dose: 25.0 mg/kg/injection, schedule: Q01DX009 (ip), vehicle: saline 101 % of control | [4] 119 % of control | dose: 100.0 mg/kg/injection, schedule: Q01DX009 (ip), vehicle: saline 103 % of control

CC(=O)OCC1OC(n2cnc(C(N)=S)c2N)C(OC(C)=O)C1OC(C)=O (configuration not stated)
inactive: [7] 100 % of control | [8] 103 % of control | [9] 110 % of control

N#Cc1c(NCc2ccccc2)nc2c3ccccc3ccn2c1=O
inactive: dose: 25.0 mg/kg/injection, schedule: Q04DX002 (ip), vehicle: saline with Tween-80 95 % of control | dose: 50.0 mg/kg/injection, schedule: Q04DX002 (ip), vehicle: saline with Tween-80 97 % of control | [13] 95 % of control

O=[N+]([O-])c1ccc2c3c(ccc([N+](=O)[O-])c13)CC2
inactive: dose: 25.0 mg/kg/injection, schedule: Q01DX009 (ip), vehicle: Klucel (hydroxypropylcellulose) (HPC) 93 % of control | dose: 50.0 mg/kg/injection, schedule: Q01DX009 (ip), vehicle: Klucel (hydroxypropylcellulose) (HPC) 93 % of control | dose: 100.0 mg/kg/injection, schedule: Q01DX009 (ip), vehicle: Klucel (hydroxypropylcellulose) (HPC) 91 % of control

COC(=O)c1c(C)oc2ccccc2c1=O
inactive: [14] 101 % of control | [15] 103 % of control | [16] 103 % of control

CC(=O)OCC1OC(n2ccc3c(=O)[nH]c(=O)[nH]c32)C(OC(C)=O)C(OC(C)=O)C1OC(C)=O (configuration not stated)
inactive: [10] 104 % of control | [11] 99 % of control | [12] 100 % of control

CCOC(=O)C(=CC=C(C(=O)OCC)C(=O)OCC)C(=O)OCC
inactive: [13] 112 % of control | dose: 200.0 mg/kg/injection, schedule: Q04DX002 (ip), vehicle: saline with Tween-80 113 % of control | dose: 400.0 mg/kg/injection, schedule: Q04DX002 (ip), vehicle: saline with Tween-80 115 % of control

CC1=C(C)C2C3C(=O)NC(=O)C3C1C1C3C(=O)NC(=O)C3C21 (configuration not stated)
inactive: dose: 60.0 mg/kg/injection, schedule: Q01DX005 (ip), vehicle: saline 101 % of control | dose: 120.0 mg/kg/injection, schedule: Q01DX005 (ip), vehicle: saline 101 % of control | dose: 240.0 mg/kg/injection, schedule: Q01DX005 (ip), vehicle: saline 100 % of control

CC(=O)Oc1cc2oc([O-])c[n+]2c2ccccc12
inactive: dose: 50.0 mg/kg/injection, schedule: Q01DX001 (ip), vehicle: saline with Tween-80 106 % of control | dose: 60.0 mg/kg/injection, schedule: Q01DX005 (ip), vehicle: Klucel + Tween-80 124 % of control | [10] 113 % of control and 124 % of control | [11] 106 % of control and 121 % of control

CN(C)c1ccc2c(SCC(=O)OCC(=O)[C@@]3(O)CC[C@H]4[C@@H]5CCC6=CC(=O)C=C[C@]6(C)[C@H]5C(=O)C[C@@]43C)c3ccc(N(C)C)cc3nc2c1
inactive: dose: 25.0 mg/kg/injection, schedule: Q01DX005 (ip), vehicle: Klucel (hydroxypropylcellulose) (HPC) 113 % of control

OC(c1ccccc1)(C(F)(F)F)C(F)(F)F
inactive: [5] 110 % of control | [6] 92 % of control

CCOC(=O)c1cnc(NCCCCNc2ncc(C(=O)OCC)c(=O)[nH]2)[nH]c1=O
inactive: [14] 98 % of control | [15] 90 % of control | [16] 90 % of control

CCN(CC)CCOC(C)(C)C#CC(C)(C)O
inactive: [1] 100 % of control | [2] 99 % of control | [3] 99 % of control
